{
  "source": "patent US20230066413A1",
  "about": "“ST[…]” (priority 2021, published 2023)",
  "origin": "cited, not measured here",
  "test_system": "antibiotic-resistant bacteria",
  "details": "stated in background, no experiment described",
  "data": [
    {"molecule": "O=c1c(O)c(-c2ccc(O)c(O)c2)oc2cc(O)cc(O)c12", "note": "[Quercetin]", "values": [
      {"measurement": "bactericidal concentration", "result": "5,000 parts per million"}
    ]}
  ]
}
